Results: patent US20150079105A1, “TREATMENT OF ACUTE INFLAMMATION IN THE RESPIRATORY TRACT” (UCL Business PLC, priority 2012, published 2015)
Entries after “also recorded” stand apart in the source; their conditions may differ.

Experiments:
LPS challenged mice = assay: LPS-induced acute lung inflammation in mice: BAL fluid cell counts, MPO, serum albumin; type: in vivo; conditions: 10 mg/kg i.p. immediately after LPS challenge; 3 h
human neutrophils = assay: Human neutrophil chemotaxis (ChemoTX) towards recombinant human chemokines; type: cell-based; conditions: 50 ng/ml; 45 min; 5×10^4 neutrophils per well
Experimental: FIG. 17. Healthy human volunteers were challenged with nebulized 0.9% saline […] (final LPS dose was 50 μg) and BAL fluid collected 6 hours later. CCL7 protein levels in BAL fluid from saline-treated or LPS-challenged human volunteers were measured by ELISA (a). Human neutrophil chemotaxis was measured across 5 μm membranes (ChemoTX, NeuroProbe) in response to recombinant human (rh) CXCL8 or rhCCL7 (b). Neutrophil chemotaxis towards LPS-treated human BAL fluid was measured in the presence of neutralizing anti-CXCL8 or anti-CCL7 antibodies (c). BAL fluid was collected from patients suffering with ALI on intensive care units. CCL7 protein (d) and CCL2 protein (f) in ALI BAL fluid was measured by ELISA. Neutrophil chemotaxis towards BAL fluid obtained from patients with ALI was measured in the presence of neutralizing anti-CXCL8 and ant-CCL7 antibodies (e). […]
Although it is widely accepted that CXCL8 (IL-8) is an important chemokine in human neutrophilic lung disease (Miller, E. J. et al Am. Rev. Respir. Dis. 146, 427-432 (1992)), it is far from clear whether other chemokines are associated with disease pathogenesis. […] For these studies, CCL7 was measured by ELISA in BAL fluid from healthy volunteers challenged with LPS (50 μg) at 6 hours as previously described (Shyamsundar, M. et al Am. J. Respir. Crit Care Med. 179, 1107-1114 (2009)). […]

naïve mice = assay: Intranasal administration of recombinant CCL2 or CCL7 to naïve mice, BAL fluid cell counts; type: in vivo; conditions: 500 ng/mouse i.n., 3 h; for total cell number recovered from BAL fluid: compared to saline treated controls
Experimental: FIG. 15. Naïve mice were administered with either rCCL2 or rCCL7 (500 ng/mouse, i.n.) and 3 h later BAL fluid was recovered. BAL fluid total cell counts (A) and total neutrophils (B) were calculated from differential cell counts performed on cytospin preparations. The percentage of neutrophils in BAL fluid was also calculated (C). Differential cell counts were performed on cytospin preparations following saline (D), rCCL2 (E) or rCCL7 (F) administration. Data were analysed by one way ANOVA with Newman-Keuls post hoc test: *p<0.05, **p<0.01,*** p<0.001. Arrows indicate: N, neutrophil; M, monocyte/macrophage.
In order to determine the whether CCL2 and CCL7 are able to directly recruit leukocytes into the lung, recombinant CCL2 or CCL7 was administered into the lungs of naïve mice and sampled the BAL fluid after 3 h. […] Differential cell counts were performed on cytospin preparations following saline (FIG. 15D), rCCL2 (FIG. 15E) or rCCL7 (FIG. 15F) administration.

CCOC(=O)N[C@@H]1CC[C@@H]2[C@@H](C1)C[C@H]1C(=O)O[C@H](C)[C@H]1[C@H]2/C=C/c1ccc(-c2cccc(F)c2)cn1 [SCH530348]
neutrophil numbers in the airspaces (BAL fluid) (LPS challenged mice): significantly decreased
total cell numbers in the airspaces (BAL fluid) (LPS challenged mice): significantly decreased

CCL7: Recombinant human CCL7 (Peprotech)
migration of neutrophils compared to media alone (human neutrophils): did not influence

CXCL8: Recombinant human CXCL8 (IL-8) (Peprotech)
migration of neutrophils compared to media alone (human neutrophils): increased

rCCL2: recombinant CCL2
recruitment of neutrophils into lung airspaces (naïve mice): resulted in the recruitment of a neutrophils
total cell number recovered from BAL fluid (naïve mice): increased; also recorded: greater number of leukocytes compared to rCCL7

rCCL7: recombinant CCL7
neutrophils as a percentage of total cells recovered from BAL fluid (naïve mice): preferential accumulation of neutrophils compared to rCCL2
recruitment of neutrophils into lung airspaces (naïve mice): resulted in the recruitment of a neutrophils
total cell number recovered from BAL fluid (naïve mice): increased
